The results in this text go back to ChEMBL document CHEMBL1909046, “DrugMatrix in vitro pharmacology data”.

The target in assay [1] is T1, Amine oxidase [flavin-containing] A (Homo sapiens, UniProt P21397).
T1 sequence (P21397 whole entry): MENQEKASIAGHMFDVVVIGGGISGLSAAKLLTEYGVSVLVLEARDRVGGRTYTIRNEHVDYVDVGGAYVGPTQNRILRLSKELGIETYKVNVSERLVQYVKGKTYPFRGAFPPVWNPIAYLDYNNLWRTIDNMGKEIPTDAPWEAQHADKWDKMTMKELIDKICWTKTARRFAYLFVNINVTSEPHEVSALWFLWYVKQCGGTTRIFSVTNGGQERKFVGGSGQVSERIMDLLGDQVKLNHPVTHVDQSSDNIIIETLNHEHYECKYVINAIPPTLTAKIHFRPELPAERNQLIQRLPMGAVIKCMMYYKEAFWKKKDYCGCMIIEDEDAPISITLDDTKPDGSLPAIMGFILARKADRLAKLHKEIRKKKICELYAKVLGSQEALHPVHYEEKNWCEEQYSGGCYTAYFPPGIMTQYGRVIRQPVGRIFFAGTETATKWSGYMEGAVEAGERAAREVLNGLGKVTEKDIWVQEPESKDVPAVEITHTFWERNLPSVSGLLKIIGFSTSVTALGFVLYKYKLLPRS
As to the kind of experiment: DRUGMATRIX: Monoamine Oxidase MAO-A enzyme inhibition (substrate: Kynuramine). Also on record: species or system BTI-TN-5B1-4. The note with it: bti-tn-5b1-4; Not Active = under 50% inhibition at 10 µM.

Assay [2] has as its target Histamine H2 receptor (Homo sapiens, UniProt P25021). The assay is classed as cell membranes, CHO-K1, Membrane. The note with it: cho-k1. Note: in other assays of this panel Not Active means under 50% inhibition at 10 µM.
Assay [3] concerns the target Melanocortin receptor 4 (Homo sapiens, UniProt P32245). It counts as cell membranes, HEK293, Membrane. The note with it: hek293. Note: in other assays of this panel Not Active means under 50% inhibition at 10 µM.
Assay [4] concerns the target T2, Adenosine receptor A3 (Homo sapiens, UniProt P0DMS8).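 Note: radioligand binding assay with AB-MECA serving as the labeled ligand; in other assays of this panel Not Active means under 50% inhibition at 10 µM.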
T2 sequence (P0DMS8 whole entry): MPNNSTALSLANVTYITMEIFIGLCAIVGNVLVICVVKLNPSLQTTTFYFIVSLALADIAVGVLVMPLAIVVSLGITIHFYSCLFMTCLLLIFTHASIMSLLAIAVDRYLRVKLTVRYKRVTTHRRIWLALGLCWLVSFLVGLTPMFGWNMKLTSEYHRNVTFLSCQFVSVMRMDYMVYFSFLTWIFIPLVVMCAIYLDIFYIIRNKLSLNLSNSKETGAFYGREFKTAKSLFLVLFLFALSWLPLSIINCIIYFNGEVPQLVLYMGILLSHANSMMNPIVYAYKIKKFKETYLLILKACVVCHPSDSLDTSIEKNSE
It counts as cell membranes, CHO-K1, Membrane. The note with it: for Ki: read-out: Ki.

The target in assay [5] is Tyrosine-protein kinase Lck (Homo sapiens, UniProt P06239). As to the kind of experiment: DRUGMATRIX: Protein Tyrosine Kinase, LCK enzyme inhibition (substrate: Poly(Glu:Tyr)). It counts as cell-based, Insect cells. The note with it: Not Active = under 50% inhibition at 10 µM.
Tyrosine-protein kinase Lck, sequence (P06239 whole entry): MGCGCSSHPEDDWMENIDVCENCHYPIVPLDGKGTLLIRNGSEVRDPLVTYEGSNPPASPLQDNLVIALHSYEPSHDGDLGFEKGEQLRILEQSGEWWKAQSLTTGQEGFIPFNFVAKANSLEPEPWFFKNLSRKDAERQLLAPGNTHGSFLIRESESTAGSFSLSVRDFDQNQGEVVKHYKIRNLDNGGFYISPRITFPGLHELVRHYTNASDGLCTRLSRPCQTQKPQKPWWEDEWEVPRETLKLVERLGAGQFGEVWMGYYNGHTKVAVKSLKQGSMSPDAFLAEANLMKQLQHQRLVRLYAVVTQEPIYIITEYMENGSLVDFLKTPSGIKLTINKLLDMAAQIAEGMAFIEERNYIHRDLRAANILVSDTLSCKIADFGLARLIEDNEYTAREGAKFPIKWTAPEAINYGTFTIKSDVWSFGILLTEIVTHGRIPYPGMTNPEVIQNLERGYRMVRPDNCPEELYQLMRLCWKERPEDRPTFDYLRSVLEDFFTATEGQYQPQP
Assay [6] can be described thus: DRUGMATRIX: Imidazoline I2, Central radioligand binding (ligand: [3H] Idazoxan). It counts as cell membranes, Rattus norvegicus, Wistar, Cerebral cortex, Membrane. The note with it: Not Active = under 50% inhibition at 10 µM.

*1 amine or outer side, *2 acyl side, *3 side chain or, on linkers, in order; H or OH if unused. Where a SMILES comes first, the peptide text is derived from it. Bridges are numbered along the chain shown (N, C = ends). Roman numbers before positions name the chains, in order. [ ]: non-standard residue; d: D form. Actinocin(1to9) = Cc1c2oc3c(C)ccc(C(=O)[*:2])c3nc-2c(C(=O)[*:1])c(N)c1=O; NMeV = CN[C@H](C(=O)O)C(C)C; Sar = CNCC(=O)O

Melanocortin receptor 4, sequence (P32245 whole entry): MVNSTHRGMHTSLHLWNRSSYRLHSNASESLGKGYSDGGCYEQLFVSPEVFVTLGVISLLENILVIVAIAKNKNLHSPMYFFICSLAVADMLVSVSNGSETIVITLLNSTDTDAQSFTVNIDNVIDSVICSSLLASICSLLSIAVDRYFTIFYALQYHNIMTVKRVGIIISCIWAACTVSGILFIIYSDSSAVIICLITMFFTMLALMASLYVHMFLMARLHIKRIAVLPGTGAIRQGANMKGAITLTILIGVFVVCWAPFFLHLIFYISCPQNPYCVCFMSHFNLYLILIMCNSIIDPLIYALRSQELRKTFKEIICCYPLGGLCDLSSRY
Histamine H2 receptor, sequence (P25021 whole entry): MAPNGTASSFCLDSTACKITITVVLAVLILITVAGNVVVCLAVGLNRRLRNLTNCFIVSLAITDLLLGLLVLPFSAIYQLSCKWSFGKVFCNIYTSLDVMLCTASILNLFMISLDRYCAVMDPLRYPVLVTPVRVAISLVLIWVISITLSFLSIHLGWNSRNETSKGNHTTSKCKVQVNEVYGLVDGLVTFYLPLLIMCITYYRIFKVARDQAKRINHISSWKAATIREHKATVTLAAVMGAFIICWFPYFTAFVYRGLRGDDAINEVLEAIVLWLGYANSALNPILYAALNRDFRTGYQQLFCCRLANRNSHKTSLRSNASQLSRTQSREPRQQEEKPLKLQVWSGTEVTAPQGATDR

With `CC(C)C(Br)C(=O)NC(N)=O` (centres undefined) [BROMISOVALUM], the IC50 result in assay [1], in assay [2], in assay [3], in assay [4] (cho-k1), in assay [5] (insect cells) and in assay [6] was “Not Active” each time. Moreover, the Ki entry in assay [6] is reported as “Not Active”.

With `CCCC1O[C@@H]2C[C@H]3[C@@H]4CCC5=CC(=O)C=C[C@]5(C)[C@H]4[C@@H](O)C[C@]3(C)[C@]2(C(=O)CO)O1` (some centres undefined) [BUDESONIDE], the IC50 entry in assay [1], in assay [2], in assay [3], in assay [4] (cho-k1), in assay [5] (insect cells) and in assay [6] was “Not Active” throughout. Also, the Ki entry in assay [6] was “Not Active”.

For the compound `CC(NC(C)(C)C)C(=O)c1cccc(Cl)c1` (centres undefined) [BUPROPION], the IC50 entry in assay [1], in assay [2], in assay [3], in assay [4] (cho-k1), in assay [5] (insect cells) and in assay [6] was “Not Active” each time. Moreover, the Ki result in assay [6] was “Not Active”.

As for `CN(Cc1ccc(C(C)(C)C)cc1)Cc1cccc2ccccc12` [BUTENAFINE], the IC50 result in assay [1], in assay [2], in assay [3], in assay [4] (cho-k1), in assay [5] (insect cells) and in assay [6] was “Not Active” each time. For the same compound, the Ki entry in assay [6] is recorded as “Not Active”.

With `C[C@H](CS)C(=O)N1CCC[C@H]1C(=O)O` [CAPTOPRIL], the IC50 entry in assay [1], in assay [2], in assay [3], in assay [4] (cho-k1), in assay [5] (insect cells) and in assay [6] was “Not Active” each time. In addition, the Ki entry in assay [6] is listed as “Not Active”.

For `Cc1ccc(-c2cc(C(F)(F)F)nn2-c2ccc(S(N)(=O)=O)cc2)cc1` [CELECOXIB], the 50% inhibitory concentration (IC50) entry in assay [1] is “Not Active”; in assay [2] it was “Not Active”; in assay [3], “Not Active”; in assay [4] (read-out: IC50), 24600 nM; in assay [5] (insect cells), “Not Active”; in assay [6], “Not Active”. The values for the Ki in assay [4] and in assay [6] were 13900 nM and “Not Active”, respectively.

`O=C(O)CCCc1ccc(N(CCCl)CCCl)cc1` [CHLORAMBUCIL]: the IC50 result in assay [1], in assay [2], in assay [3], in assay [4] (cho-k1), in assay [5] (insect cells) and in assay [6] was “Not Active” each time. Also, the Ki entry in assay [6] was “Not Active”.

In the case of `C[C@H](CCC(=O)O)[C@H]1CC[C@H]2[C@@H]3[C@H](O)C[C@@H]4C[C@H](O)CC[C@]4(C)[C@H]3C[C@H](O)[C@]12C` [CHOLIC ACID], the IC50 result in assay [1], in assay [2], in assay [3], in assay [4] (cho-k1), in assay [5] (insect cells) and in assay [6] was “Not Active” throughout. Also, the Ki entry in assay [6] is given as “Not Active”.

For `Cc1cc(C2CCCCC2)n(O)c(=O)c1` [CICLOPIROX], the half-inhibitory concentration (IC50) entry in assay [1], in assay [2], in assay [3], in assay [4] (cho-k1), in assay [5] (insect cells) and in assay [6] was “Not Active” each time. Also, in assay [6], the Ki entry was “Not Active”.

Regarding `CC1=C2C(=CO[C@H](C)[C@H]2C)C(O)=C(C(=O)O)C1=O` [CITRININ], the IC50 result in assay [1], in assay [2], in assay [3], in assay [4] (cho-k1), in assay [5] (insect cells) and in assay [6] was “Not Active” throughout. Also, in assay [6], the Ki entry was “Not Active”.

Turning to `CC(C)(C)NCC(O)c1cc(Cl)c(N)c(Cl)c1` (centres undefined) [CLENBUTEROL], the IC50 entry in assay [1], in assay [2], in assay [3], in assay [4] (cho-k1), in assay [5] (insect cells) and in assay [6] was “Not Active” throughout. The Ki entry in assay [6] is “Not Active”.

In the case of `CC(C)(Oc1ccc(Cl)cc1)C(=O)O` [CLOFIBRIC ACID], the IC50 result in assay [1], in assay [2], in assay [3], in assay [4] (cho-k1), in assay [5] (insect cells) and in assay [6] was “Not Active” each time. Also, in assay [6], the Ki entry was “Not Active”.

As to `Clc1cccc(Cl)c1NC1=NCCN1` [CLONIDINE], the IC50 result in assay [1] was “Not Active”; in assay [2], “Not Active”; in assay [3], “Not Active”; in assay [4] (cho-k1), “Not Active”; in assay [5] (insect cells), “Not Active”; in assay [6] (read-out: IC50) it was 64 nM. In addition, the inhibitory constant (Ki) in assay [6] (read-out: Ki) came out at 43 nM.

For the compound `Cc1cc(C(C#N)c2ccc(Cl)cc2)c(Cl)cc1NC(=O)c1cc(I)cc(I)c1O` (centres undefined) [CLOSANTEL], the IC50 entry in assay [1] was “Not Active”; in assay [2], “Not Active”; in assay [3] it was “Not Active”; in assay [4] (read-out: IC50), 96 nM; in assay [5] (read-out: IC50) it was 1250 nM; in assay [6] it was “Not Active”. Moreover, the results for the Ki in assay [4] and in assay [6] were 54 nM and “Not Active”, respectively.

Consider `Cc1onc(-c2ccccc2Cl)c1C(=O)N[C@@H]1C(=O)N2[C@@H]1SC(C)(C)[C@@H]2C(=O)O` [CLOXACILLIN], for which the IC50 result in assay [1], in assay [2], in assay [3], in assay [4] (cho-k1), in assay [5] (insect cells) and in assay [6] was “Not Active” each time. The Ki result in assay [6] was “Not Active”.

As to `CC1CC(OC(=O)C(O)c2ccccc2)CC(C)(C)C1` (centres undefined) [CYCLANDELATE], the IC50 entry in assay [1], in assay [2], in assay [3], in assay [4] (cho-k1), in assay [5] (insect cells) and in assay [6] was “Not Active” in each case. In addition, in assay [6], the Ki result is given as “Not Active”.

As for `Cc1c2oc3c(C)ccc(C(=O)N[C@@H]4C(=O)N[C@H](C(C)C)C(=O)N5CCC[C@H]5C(=O)N(C)CC(=O)N(C)[C@@H](C(C)C)C(=O)O[C@@H]4C)c3nc-2c(C(=O)N[C@@H]2C(=O)N[C@H](C(C)C)C(=O)N3CCC[C@H]3C(=O)N(C)CC(=O)N(C)[C@@H](C(C)C)C(=O)O[C@@H]2C)c(N)c1=O` [DACTINOMYCIN] (I: T[dV]P[Sar][NMeV] / II: T[dV]P[Sar][NMeV]; ester I:1-I:C, II:1-II:C; linker I:N-II:N via Actinocin(1to9)), the IC50 entry in assay [1], in assay [2], in assay [3], in assay [4] (cho-k1), in assay [5] (insect cells) and in assay [6] was “Not Active” in each case. For the same compound, in assay [6], the Ki result is reported as “Not Active”.

For the compound `Cc1c(O)c(=O)ccn1C` [DEFERIPRONE], the IC50 result in assay [1], in assay [2], in assay [3], in assay [4] (cho-k1), in assay [5] (insect cells) and in assay [6] was “Not Active” in each case. In assay [6], the Ki result is given as “Not Active”.

As to `CNCCCN1c2ccccc2CCc2ccccc21` [DESIPRAMINE], the IC50 entry in assay [1], in assay [2], in assay [3], in assay [4] (cho-k1), in assay [5] (insect cells) and in assay [6] was “Not Active” throughout. Further, the Ki result in assay [6] is “Not Active”.

`O=c1oc2ccccc2c(O)c1Cc1c(O)c2ccccc2oc1=O` [DICUMAROL]: the IC50 result in assay [1], in assay [2], in assay [3], in assay [4] (cho-k1), in assay [5] (insect cells) and in assay [6] was “Not Active” throughout. Moreover, the inhibition constant (Ki) entry in assay [6] is on record as “Not Active”.

Take `C[C@H]1O[C@@H](O[C@H]2[C@@H](O)C[C@H](O[C@H]3[C@@H](O)C[C@H](O[C@H]4CC[C@@]5(C)[C@H](CC[C@@H]6[C@@H]5C[C@@H](O)[C@]5(C)[C@@H](C7=CC(=O)OC7)CC[C@]65O)C4)O[C@@H]3C)O[C@@H]2C)C[C@H](O)[C@@H]1O` [DIGOXIN]: the IC50 result in assay [1], in assay [2], in assay [3], in assay [4] (cho-k1), in assay [5] (insect cells) and in assay [6] was “Not Active” throughout. In addition, the Ki entry in assay [6] is listed as “Not Active”.

A word on the IC50: it is the point on the concentration scale where inhibition reaches its midpoint. One may read the Ki as the dissociation constant of the complex between target and ligand, obtained from inhibition or displacement.
